Calls of active or inactive are those of the source.
Columns and labels:
Ephrin type-A receptor 5 = Ephrin type-A receptor 5 (Homo sapiens, UniProt P54756)
[1] = target: T1, Probable ATP-dependent RNA helicase DDX6 (Homo sapiens, UniProt P26196)
T1 sequence (P26196 whole entry): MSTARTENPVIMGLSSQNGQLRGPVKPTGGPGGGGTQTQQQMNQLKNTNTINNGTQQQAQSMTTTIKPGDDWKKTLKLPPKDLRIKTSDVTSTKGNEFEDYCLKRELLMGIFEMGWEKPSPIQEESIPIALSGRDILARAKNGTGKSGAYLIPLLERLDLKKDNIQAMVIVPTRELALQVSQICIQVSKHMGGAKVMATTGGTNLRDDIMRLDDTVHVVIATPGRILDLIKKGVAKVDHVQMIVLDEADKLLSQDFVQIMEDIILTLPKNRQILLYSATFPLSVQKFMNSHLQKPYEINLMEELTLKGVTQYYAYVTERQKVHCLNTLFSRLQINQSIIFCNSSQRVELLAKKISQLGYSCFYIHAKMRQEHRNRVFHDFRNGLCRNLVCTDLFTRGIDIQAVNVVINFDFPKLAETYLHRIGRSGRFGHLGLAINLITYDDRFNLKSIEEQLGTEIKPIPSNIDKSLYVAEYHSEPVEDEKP

GTP-binding protein 4 = GTP-binding protein 4 (Homo sapiens, UniProt Q9BZE4)
DNA topoisomerase 2-beta = DNA topoisomerase 2-beta (Homo sapiens, UniProt Q02880)
[2] = target: BMP-2-inducible protein kinase (Homo sapiens, UniProt Q9NSY1)
[3] = target: T2, Serine/threonine-protein kinase ULK3 (Homo sapiens, UniProt Q6PHR2)
T2 sequence (Q6PHR2 whole entry): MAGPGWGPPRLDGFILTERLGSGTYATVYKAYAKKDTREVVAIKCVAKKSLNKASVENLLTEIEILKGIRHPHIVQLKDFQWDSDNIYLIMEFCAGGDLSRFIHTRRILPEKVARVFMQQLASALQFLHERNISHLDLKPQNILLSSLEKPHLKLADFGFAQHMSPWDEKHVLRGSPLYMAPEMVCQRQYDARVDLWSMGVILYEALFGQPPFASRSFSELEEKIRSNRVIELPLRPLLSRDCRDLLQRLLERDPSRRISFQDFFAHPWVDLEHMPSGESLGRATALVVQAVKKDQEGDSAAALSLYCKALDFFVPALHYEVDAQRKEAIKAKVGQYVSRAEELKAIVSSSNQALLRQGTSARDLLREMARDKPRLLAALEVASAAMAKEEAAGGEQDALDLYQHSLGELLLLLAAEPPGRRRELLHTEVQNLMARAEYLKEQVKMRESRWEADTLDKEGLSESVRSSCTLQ

[4] = target: Mitogen-activated protein kinase 9 (Homo sapiens, UniProt P45984)
[5] = target: Serine/threonine-protein kinase MRCK beta (Homo sapiens, UniProt Q9Y5S2)
[6] = target: T3, Tyrosine--tRNA ligase, cytoplasmic (Homo sapiens, UniProt P54577)
T3 sequence (P54577 whole entry): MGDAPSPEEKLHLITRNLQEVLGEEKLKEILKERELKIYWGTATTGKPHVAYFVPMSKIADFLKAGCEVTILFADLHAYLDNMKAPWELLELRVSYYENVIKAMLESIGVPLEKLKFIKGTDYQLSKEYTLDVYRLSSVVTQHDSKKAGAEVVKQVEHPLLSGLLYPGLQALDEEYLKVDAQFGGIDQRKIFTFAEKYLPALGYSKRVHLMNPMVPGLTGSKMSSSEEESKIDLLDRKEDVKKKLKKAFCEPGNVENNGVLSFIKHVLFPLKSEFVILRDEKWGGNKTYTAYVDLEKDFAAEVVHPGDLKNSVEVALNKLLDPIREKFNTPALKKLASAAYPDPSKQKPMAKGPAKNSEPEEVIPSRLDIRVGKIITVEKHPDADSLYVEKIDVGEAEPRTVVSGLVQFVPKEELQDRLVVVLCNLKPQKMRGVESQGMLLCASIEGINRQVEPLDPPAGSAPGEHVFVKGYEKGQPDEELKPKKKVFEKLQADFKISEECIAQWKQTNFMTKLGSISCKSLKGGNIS

[7] = target: Atypical kinase COQ8A, mitochondrial (Homo sapiens, UniProt Q8NI60)
[8] = target: T4, Serine/threonine-protein kinase PLK4 (Homo sapiens, UniProt O00444)
T4 sequence (O00444 whole entry): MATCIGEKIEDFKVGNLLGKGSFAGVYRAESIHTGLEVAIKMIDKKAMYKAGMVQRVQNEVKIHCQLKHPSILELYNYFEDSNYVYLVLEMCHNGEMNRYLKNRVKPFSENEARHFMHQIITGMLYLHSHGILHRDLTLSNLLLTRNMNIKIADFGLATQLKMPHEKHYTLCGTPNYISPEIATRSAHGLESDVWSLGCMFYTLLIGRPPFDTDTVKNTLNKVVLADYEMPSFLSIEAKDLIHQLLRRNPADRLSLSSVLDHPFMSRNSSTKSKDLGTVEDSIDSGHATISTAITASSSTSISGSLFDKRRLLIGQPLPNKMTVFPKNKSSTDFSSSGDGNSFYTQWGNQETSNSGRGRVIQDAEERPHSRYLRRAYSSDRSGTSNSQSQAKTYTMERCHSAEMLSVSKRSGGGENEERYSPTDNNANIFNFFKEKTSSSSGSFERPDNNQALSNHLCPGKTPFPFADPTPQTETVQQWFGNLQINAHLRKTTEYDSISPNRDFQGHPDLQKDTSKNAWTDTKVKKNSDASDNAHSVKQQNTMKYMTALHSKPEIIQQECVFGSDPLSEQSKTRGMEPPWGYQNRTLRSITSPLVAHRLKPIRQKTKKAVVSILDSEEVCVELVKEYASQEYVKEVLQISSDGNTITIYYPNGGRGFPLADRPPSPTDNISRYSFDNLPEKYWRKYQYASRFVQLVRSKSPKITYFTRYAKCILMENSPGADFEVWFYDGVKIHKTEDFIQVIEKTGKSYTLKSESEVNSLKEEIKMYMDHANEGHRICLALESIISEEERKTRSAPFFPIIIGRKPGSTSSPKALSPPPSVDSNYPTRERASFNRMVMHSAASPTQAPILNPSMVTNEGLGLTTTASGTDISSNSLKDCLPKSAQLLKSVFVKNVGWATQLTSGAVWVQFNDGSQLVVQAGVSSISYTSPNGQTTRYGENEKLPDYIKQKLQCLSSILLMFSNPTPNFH
Note: in the data inactive means no Kd found up to 30 µM.

Chain of DNA topoisomerase 2-beta (Q02880 whole entry): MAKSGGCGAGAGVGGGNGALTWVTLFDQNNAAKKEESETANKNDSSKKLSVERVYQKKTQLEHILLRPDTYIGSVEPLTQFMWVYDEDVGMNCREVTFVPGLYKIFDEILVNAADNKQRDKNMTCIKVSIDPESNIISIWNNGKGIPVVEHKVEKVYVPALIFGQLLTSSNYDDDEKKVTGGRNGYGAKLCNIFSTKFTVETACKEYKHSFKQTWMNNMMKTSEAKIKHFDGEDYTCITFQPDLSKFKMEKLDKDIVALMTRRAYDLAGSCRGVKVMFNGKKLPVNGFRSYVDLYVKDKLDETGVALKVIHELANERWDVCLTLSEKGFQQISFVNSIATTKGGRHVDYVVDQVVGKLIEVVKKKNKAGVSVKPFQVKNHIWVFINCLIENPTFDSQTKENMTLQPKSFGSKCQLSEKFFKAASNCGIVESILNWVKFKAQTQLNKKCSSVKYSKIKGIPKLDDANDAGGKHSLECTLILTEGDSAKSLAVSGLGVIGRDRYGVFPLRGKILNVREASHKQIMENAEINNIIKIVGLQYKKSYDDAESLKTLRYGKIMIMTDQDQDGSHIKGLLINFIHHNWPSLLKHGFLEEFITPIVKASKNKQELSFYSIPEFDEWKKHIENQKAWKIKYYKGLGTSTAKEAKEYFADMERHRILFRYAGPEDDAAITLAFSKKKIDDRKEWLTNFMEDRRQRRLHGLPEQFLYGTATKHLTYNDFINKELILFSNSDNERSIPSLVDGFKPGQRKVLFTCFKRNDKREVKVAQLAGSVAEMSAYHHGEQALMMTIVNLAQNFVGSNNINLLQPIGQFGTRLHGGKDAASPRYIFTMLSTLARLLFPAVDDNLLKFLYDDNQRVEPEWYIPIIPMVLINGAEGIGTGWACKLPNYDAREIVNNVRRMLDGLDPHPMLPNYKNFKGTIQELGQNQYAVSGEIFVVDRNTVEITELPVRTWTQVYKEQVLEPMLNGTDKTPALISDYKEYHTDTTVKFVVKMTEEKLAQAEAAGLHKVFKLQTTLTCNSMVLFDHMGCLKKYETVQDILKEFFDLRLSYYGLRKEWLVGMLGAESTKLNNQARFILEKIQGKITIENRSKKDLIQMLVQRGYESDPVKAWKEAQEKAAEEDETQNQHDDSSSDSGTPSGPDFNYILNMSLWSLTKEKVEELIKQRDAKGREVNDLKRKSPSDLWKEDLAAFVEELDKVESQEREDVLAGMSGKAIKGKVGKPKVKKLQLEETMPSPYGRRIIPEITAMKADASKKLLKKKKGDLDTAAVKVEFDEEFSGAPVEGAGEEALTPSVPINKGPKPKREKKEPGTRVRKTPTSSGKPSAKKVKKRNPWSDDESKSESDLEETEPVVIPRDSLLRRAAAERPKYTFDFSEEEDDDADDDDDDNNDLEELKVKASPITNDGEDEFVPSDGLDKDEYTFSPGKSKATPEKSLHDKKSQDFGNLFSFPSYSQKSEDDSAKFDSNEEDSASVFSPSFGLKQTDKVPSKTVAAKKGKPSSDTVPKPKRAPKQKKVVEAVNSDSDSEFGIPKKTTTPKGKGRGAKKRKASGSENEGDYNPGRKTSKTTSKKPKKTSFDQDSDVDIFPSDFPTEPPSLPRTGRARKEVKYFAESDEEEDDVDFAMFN
Chain of Atypical kinase COQ8A, mitochondrial (Q8NI60 whole entry): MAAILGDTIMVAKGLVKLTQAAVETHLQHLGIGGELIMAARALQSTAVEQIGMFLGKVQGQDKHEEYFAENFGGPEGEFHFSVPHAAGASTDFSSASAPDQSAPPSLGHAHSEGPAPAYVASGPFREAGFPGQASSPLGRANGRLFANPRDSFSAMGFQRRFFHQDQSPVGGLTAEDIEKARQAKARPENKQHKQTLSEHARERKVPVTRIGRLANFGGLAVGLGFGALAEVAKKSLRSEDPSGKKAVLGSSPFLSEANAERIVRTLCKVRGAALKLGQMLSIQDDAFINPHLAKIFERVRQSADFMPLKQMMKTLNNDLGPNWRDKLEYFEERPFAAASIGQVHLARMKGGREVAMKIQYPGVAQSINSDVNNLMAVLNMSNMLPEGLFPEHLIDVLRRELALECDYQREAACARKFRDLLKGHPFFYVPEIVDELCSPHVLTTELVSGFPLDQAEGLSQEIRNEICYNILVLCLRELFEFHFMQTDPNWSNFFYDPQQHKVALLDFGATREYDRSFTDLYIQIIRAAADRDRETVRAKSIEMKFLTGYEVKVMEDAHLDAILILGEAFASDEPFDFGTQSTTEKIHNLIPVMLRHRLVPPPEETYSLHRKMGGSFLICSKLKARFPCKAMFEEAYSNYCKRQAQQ
Chain of Mitogen-activated protein kinase 9 (P45984 whole entry): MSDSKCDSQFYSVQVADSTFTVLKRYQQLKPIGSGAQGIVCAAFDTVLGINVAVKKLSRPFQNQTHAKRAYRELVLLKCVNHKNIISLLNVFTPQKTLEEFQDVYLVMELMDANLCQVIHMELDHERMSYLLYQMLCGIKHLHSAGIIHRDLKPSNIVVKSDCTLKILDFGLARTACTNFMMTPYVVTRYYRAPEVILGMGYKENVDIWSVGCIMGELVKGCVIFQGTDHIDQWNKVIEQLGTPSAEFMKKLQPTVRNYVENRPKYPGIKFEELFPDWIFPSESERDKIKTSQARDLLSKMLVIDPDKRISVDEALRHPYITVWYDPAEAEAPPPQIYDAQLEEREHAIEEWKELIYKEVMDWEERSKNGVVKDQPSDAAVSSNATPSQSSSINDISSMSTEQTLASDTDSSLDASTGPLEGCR
Chain of BMP-2-inducible protein kinase (Q9NSY1 whole entry): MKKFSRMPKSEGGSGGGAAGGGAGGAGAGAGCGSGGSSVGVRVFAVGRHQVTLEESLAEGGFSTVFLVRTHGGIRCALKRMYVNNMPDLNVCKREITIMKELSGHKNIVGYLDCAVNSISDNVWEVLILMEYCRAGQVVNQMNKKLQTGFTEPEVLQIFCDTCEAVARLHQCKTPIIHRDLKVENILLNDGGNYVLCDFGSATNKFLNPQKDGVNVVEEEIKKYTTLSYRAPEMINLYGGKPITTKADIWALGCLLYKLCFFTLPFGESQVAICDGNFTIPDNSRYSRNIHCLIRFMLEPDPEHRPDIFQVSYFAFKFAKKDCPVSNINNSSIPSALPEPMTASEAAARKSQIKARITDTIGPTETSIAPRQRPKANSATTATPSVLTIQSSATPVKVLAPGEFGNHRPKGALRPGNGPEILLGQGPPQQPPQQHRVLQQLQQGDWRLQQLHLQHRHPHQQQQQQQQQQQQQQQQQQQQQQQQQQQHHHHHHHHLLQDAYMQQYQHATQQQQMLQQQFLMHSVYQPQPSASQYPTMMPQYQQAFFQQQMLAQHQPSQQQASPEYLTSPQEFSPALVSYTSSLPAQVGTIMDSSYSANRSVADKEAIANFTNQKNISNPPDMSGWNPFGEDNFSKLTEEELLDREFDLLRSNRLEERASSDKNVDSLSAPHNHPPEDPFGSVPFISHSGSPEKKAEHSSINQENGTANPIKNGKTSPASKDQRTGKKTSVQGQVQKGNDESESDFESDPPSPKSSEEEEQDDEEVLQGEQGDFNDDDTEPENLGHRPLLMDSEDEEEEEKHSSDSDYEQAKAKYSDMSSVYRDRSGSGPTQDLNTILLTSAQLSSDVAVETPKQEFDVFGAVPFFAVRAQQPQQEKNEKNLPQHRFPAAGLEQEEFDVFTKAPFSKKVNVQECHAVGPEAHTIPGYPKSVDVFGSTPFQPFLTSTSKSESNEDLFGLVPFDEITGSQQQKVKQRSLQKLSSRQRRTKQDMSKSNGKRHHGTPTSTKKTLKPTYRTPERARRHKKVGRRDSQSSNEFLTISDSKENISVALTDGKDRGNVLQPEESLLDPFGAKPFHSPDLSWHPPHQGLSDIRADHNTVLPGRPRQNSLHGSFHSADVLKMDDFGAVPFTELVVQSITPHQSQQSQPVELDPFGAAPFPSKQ
Chain of Ephrin type-A receptor 5 (P54756 whole entry): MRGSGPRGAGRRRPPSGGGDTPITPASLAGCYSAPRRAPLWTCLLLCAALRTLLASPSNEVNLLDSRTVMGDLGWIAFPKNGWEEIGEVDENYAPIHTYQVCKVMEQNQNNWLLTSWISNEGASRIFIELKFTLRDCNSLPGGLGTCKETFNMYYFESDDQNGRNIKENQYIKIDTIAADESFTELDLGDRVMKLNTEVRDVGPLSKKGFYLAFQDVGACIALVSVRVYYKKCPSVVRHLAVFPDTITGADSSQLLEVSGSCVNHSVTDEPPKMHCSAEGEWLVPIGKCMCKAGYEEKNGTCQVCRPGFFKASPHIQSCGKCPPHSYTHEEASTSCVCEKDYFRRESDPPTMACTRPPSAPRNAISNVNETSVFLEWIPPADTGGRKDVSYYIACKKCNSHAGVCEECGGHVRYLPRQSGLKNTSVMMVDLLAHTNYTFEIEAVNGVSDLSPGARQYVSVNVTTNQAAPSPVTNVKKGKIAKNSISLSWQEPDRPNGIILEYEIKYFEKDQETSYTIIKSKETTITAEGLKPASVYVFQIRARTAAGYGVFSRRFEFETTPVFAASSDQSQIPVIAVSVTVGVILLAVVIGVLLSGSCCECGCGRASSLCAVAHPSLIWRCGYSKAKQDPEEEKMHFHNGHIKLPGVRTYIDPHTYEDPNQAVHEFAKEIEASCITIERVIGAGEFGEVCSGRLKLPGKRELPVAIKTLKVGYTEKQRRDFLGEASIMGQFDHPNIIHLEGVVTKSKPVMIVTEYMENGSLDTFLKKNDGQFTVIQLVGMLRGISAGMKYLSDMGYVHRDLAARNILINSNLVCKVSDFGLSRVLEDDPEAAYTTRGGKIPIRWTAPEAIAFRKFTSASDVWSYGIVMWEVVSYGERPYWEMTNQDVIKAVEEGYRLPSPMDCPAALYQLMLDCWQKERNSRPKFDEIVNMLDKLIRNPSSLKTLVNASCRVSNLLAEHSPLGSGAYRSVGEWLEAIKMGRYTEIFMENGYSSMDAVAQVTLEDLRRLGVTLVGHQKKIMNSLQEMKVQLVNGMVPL

Row | SMILES | Kd (Ephrin type-A receptor 5) | Kd [1] | Kd (GTP-binding protein 4) | Kd (DNA topoisomerase 2-beta) | Kd [2] | Kd [3] | Kd [4] | Kd [5] | Kd [6] | Kd [7] | Kd [8]
1 | C=CC(=O)Nc1cc2c(Nc3ccc(F)c(Cl)c3)ncnc2cc1C#CC(C)(C)N1CCN(C)CC1 [AV-412 FREE BASE] | > 30 µM (inactive) | > 30 µM (inactive) | > 30 µM (inactive) | > 30 µM (inactive) | > 30 µM (inactive) | > 30 µM (inactive) | > 30 µM (inactive) | > 30 µM (inactive) | > 30 µM (inactive) | > 30 µM (inactive) | > 30 µM (inactive)
2 | Cn1cnc2c(F)c(Nc3ccc(Br)cc3F)c(C(=O)NOCCO)cc21 [BINIMETINIB] | > 30 µM (inactive) | > 30 µM (inactive) | > 30 µM (inactive) | > 30 µM (inactive) | > 30 µM (inactive) | > 30 µM (inactive) | > 30 µM (inactive) | > 30 µM (inactive) | > 30 µM (inactive) | > 30 µM (inactive) | > 30 µM (inactive)
3 | CCn1c(C(=O)N(C2CC2)C2CC2)cc2c3c(ncn3C)c(Nc3cc(C)n(C)n3)nc21 [BMS-911543] | > 30 µM (inactive) | > 30 µM (inactive) | > 30 µM (inactive) | > 30 µM (inactive) | > 30 µM (inactive) | > 30 µM (inactive) | > 30 µM (inactive) | > 30 µM (inactive) | > 30 µM (inactive) | > 30 µM (inactive) | > 30 µM (inactive)
4 | Cc1cc(Nc2ncc(Cl)c(Nc3ccccc3S(=O)(=O)C(C)C)n2)c(OC(C)C)cc1C1CCNCC1 [CERITINIB] | > 30 µM (inactive) | > 30 µM (inactive) | > 30 µM (inactive) | > 30 µM (inactive) | > 30 µM (inactive) | > 30 µM (inactive) | > 30 µM (inactive) | > 30 µM (inactive) | > 30 µM (inactive) | > 30 µM (inactive) | 7.1 µM (active)
5 | Cc1nc2cc(-n3ncc(C(=O)c4cc5ccccc5[nH]4)c3N)ccc2[nH]1 [FGFR INHIBITOR DEBIO 1347] | > 30 µM (inactive) | > 30 µM (inactive) | > 30 µM (inactive) | > 30 µM (inactive) | > 30 µM (inactive) | > 30 µM (inactive) | > 30 µM (inactive) | > 30 µM (inactive) | > 30 µM (inactive) | > 30 µM (inactive) | > 30 µM (inactive)
6 | CNC(=O)c1nn(C)c2c1C(C)(C)Cc1cnc(Nc3ccc(N4CCN(C)CC4)cc3)nc1-2 [MILCICLIB] | 0.147 µM (active) | > 30 µM (inactive) | – | > 30 µM (inactive) | > 30 µM (inactive) | > 30 µM (inactive) | > 30 µM (inactive) | > 30 µM (inactive) | > 30 µM (inactive) | 3.01 µM (active) | > 30 µM (inactive)
7 | O=C(NOCCO)c1cc(CN2OCCCC2=O)c(F)c(F)c1Nc1ccc(I)cc1F [RO-4987655] | – | > 30 µM (inactive) | > 30 µM (inactive) | > 30 µM (inactive) | – | – | – | – | > 30 µM (inactive) | – | –
